One test has as its system HepG2. Kind of test: Antiproliferative activity against human HepG2 cells incubated for 72 hrs. Particulars: HepG2, 72 h.
The next test relates to MCF7. Kind of test: Antiproliferative activity against human MCF7 cells incubated for 72 hrs. Particulars: MCF7, 72 h.
A further test concerns A549. Kind of test: Antiproliferative activity against human A549 cells incubated for 72 hrs. The settings on record: A549, 72 h.
Test [1] deals with HT-29. The experiment in a line: Antiproliferative activity against human HT-29 cells incubated for 72 hrs. Particulars: HT-29, 72 h.
Another test concerns PC-3. The experiment in a line: Antiproliferative activity against human PC-3 cells incubated for 72 hrs. The settings on record: PC-3, 72 h.
In a further test the test system is WI-38. Kind of test: Antiproliferative activity against human WI-38 cells incubated for 72 hrs. The settings on record: WI-38, 72 h.
Another test concerns HUVEC. Kind of test: Cytotoxicity against HUVEC cells. Particulars: Homo sapiens.
Test [2] deals with Vascular endothelial growth factor receptor 2 (Homo sapiens, UniProt P35968). Kind of test: Inhibition of VEGFR2 (unknown origin).
In test [3] the test system is HT-29. Kind of test: Induction of cell cycle arrest in human HT-29 cells assessed as accumulation of cells at G2/M phase at IC50 measured after 24 hrs by flow cytometry. It is filed as functional, cell-based. Background: In flow cytometry, cells or beads pass a laser one at a time.
Test [4] relates to HT-29. Kind of test: Induction of apoptosis in human HT-29 cells assessed as increase in total apoptotic cells measured after 24 hrs by flow cytometry. It is filed as functional, cell-based.

Molecules are shown by their SMILES. Activity calls are given as the source filed them. The calls are words filed in the database; no cut-off is given here.

Sequence of Vascular endothelial growth factor receptor 2 (P35968 whole entry): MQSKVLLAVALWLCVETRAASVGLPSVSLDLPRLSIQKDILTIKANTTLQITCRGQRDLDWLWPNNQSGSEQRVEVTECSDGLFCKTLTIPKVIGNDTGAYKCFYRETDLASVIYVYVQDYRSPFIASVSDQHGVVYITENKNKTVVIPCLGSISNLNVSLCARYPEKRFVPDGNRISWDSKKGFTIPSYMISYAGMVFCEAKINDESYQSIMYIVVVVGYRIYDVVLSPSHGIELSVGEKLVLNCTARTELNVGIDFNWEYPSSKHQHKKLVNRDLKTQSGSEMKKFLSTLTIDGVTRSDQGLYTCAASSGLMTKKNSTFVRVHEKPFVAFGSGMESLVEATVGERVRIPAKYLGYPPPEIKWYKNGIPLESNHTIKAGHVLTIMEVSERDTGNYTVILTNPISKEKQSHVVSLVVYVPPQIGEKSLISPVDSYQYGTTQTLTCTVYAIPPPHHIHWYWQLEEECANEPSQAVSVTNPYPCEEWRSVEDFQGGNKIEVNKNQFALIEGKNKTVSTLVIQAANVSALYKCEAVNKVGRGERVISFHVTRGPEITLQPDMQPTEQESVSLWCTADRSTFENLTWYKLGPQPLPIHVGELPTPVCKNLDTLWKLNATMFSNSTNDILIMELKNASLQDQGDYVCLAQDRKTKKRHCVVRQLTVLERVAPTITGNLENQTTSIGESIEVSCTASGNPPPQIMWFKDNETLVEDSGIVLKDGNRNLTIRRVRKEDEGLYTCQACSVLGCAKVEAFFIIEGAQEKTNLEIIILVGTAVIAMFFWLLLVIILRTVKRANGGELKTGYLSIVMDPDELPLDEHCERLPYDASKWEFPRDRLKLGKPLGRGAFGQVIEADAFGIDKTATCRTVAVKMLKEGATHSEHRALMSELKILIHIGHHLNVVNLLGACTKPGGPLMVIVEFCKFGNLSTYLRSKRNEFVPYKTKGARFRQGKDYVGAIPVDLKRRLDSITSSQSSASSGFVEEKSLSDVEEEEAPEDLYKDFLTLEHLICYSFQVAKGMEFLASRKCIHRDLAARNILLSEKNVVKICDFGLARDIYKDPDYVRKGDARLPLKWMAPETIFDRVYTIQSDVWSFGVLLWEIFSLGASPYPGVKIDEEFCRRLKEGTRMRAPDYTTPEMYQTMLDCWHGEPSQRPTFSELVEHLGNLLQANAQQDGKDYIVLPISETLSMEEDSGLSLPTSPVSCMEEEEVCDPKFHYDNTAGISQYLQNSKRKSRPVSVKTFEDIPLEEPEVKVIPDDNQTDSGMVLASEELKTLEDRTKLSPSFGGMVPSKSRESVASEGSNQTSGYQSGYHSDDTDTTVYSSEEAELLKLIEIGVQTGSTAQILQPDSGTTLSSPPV

What is called IC50 is the concentration that gives 50% inhibition. Low values mean inhibition by little substance, high ones a need for much substance. For `N#Cc1c(N=CNc2ccc(Br)cc2)oc(-c2ccccc2)c1-c1ccccc1`, the half-maximal inhibitory concentration (IC50) was determined as 11.2 µM with HepG2; 9.06 µM with MCF7; 10.1 µM with A549; 12.1 µM in the test with HT-29 [1]; 23.2 µM in the test with PC-3; 27.4 µM in the test on WI-38.

`N=c1c2cc(-c3ccccc3)oc2ncn1/N=C/c1ccc(Br)cc1`: the IC50 with HUVEC turned out to be 61.2 µM.

In test [2], `Cc1cccc(-c2nc3c4c(-c5ccccc5)c(-c5ccccc5)oc4ncn3n2)c1` had an IC50 of 0.121 µM.

Take `N#Cc1c(N=CNc2ccc(Cl)cc2)oc(-c2ccccc2)c1-c1ccccc1`: the IC50 is 7.28 µM with HepG2; 6.72 µM with MCF7; 6.66 µM in the test on A549; 8.51 µM in the test on HT-29 [1]; 14.5 µM in the test with PC-3; 30 µM in the test with WI-38. Also, the result with HT-29 [3] and in the test with HT-29 [4] was Active.

`COc1ccc(-c2nc3c4cc(-c5ccc(OC)cc5)oc4ncn3n2)cc1`: in the test on HUVEC, half-maximal inhibition (IC50) was put at 22.6 µM.

Turning to `Cc1ccc(-c2nc3c4c(-c5ccccc5)c(-c5ccccc5)oc4ncn3n2)cc1`, the IC50 in [2] worked out at 0.125 µM.

As for `O=C(Nc1ncnc2oc(-c3ccccc3)c(-c3ccccc3)c12)c1ccc([N+](=O)[O-])cc1`, the IC50 with HepG2 was 13.1 µM; in the test with MCF7, 11.4 µM; in the test on A549, 14.5 µM; with HT-29 [1], 21.4 µM; in the test on PC-3, 22.1 µM; in the test with WI-38 it was 26.5 µM.
